Results as given in ChEMBL document CHEMBL5614464, “Geldanamycin, a Naturally Occurring Inhibitor of Hsp90 and a Lead Compound for Medicinal Chemistry” (J Med Chem, 2024).

Experiments:
SK-OV-3 = experiment: Antiproliferative activity against human SK-OV-3 cells assessed as reduction in cell viability incubated for 48 hrs by MTT assay; assay type: functional, cell-based; conditions: SK-OV-3, 48 h
PC-3 = experiment: Antiproliferative activity against human PC-3 cells assessed as reduction in cell viability incubated for 48 hrs by MTT assay; assay type: functional, cell-based; conditions: PC-3, 48 h
[1] = Inhibition of recombinant HSP90 (unknown origin); parameters: species or system Homo sapiens

| IC50 (SK-OV-3) | IC50 (PC-3) | IC50 [1] | SMILES |
| --- | --- | --- | --- |
| 580 nM | 580 nM | – | COC1=C2C[C@@H](C)C[C@H](OC)[C@H](O)[C@@H](C)/C=C(\C)[C@H](OC(N)=O)[C@@H](OC)/C=C\C=C(/C)C(=O)NC(=CC1=O)C2=O [GELDANAMYCIN] |
| – | – | 1700 nM | CO[C@H]1/C=C\C=C(/C)C(=O)NC2=CC(=O)C(c3ccccc3)=C(C[C@@H](C)C[C@H](OC)[C@H](O)[C@@H](C)/C=C(\C)[C@@H]1OC(N)=O)C2=O |
